Measurements: patent US20190256499A1, “SUBSTITUTED QUINOXALINE DERIVATIVES AS INHIBITORS OF PFKFB” (priority 2016, published 2019)
In brackets after ≈: the same amount, converted by molar mass.

Legend:
[1] = biological target: T1, Human recombinant His-tagged PFKFB3 (Homo sapiens, UniProt Q16875); experiment: PFKFB3 IC50 determination assay (modified ADP-Glo in vitro kinase assay); format: biochemical; details: human recombinant PFKFB3 25 nM, ATP 20 μM, fructose-6-phosphate 2 μM, 2 h, rt; read-out: PFKFB IC50
T1 construct: His; made in house
Description: In vitro kinase assay used to determine IC50 values for tested inhibitors is based on a modified ADP-Glo™ system (Promega) and consists of two parts:
1. Kinase reaction—performed in optimized conditions. At this step PFKFB3 phosphorylates its substrate fructose-6-phosphate using ATP as a source of phosphate to produce fructose-2,6-bisphosphate and ADP. Reaction is performed at Km values for ATP and substrate using optimized buffer composition and time of the reaction. Human recombinant His-tagged PFKFB3 (PFKFB3 BATCH II SEC) with confirmed activity is produced and purified in-house. 2. Detection of ADP as a product of the reaction using ADP-Glo™ system. This part is conducted by using the commercially available kit ADP-Glo™ Kinase Assay (Promega, cat. No# V9103) according to manufacturer's instruction, modified by 5× dilutions of assay reagents (both ADP-Glo™ Reagent and Kinase Detection Solution). Reproducibility and reliability of this modification is confirmed in an optimization process.
Test compounds are dissolved in DMSO and then transferred to the V-bottom 96-well plate. For IC50 determination ten 10× serial dilutions starting from 100 μM are prepared.
Two mixes are prepared on ice: Mix 1—containing appropriate kinase amount in 2× reaction buffer (100 mM TRIS pH 8.0) and Mix 2—containing 2.31× concentrated substrate (Fructose-6-phosphate) and ATP in MilliQ water. 15 μL per well of Mix 1 is transferred to assay wells of 96-well white plate. Next, 2 μl of 15× concentrated test compound in DMSO is added to Mix 1 for 20 min pre-incubation, followed by addition of Mix 2 (13 μl/well). Total reaction volume is 30 μL per well. Samples are tested in duplicates. Final concentration of DMSO in the reaction is 6.7%. Conditions needed for performing PFKFB3 (PFKFB3 BATCH II SEC) in vitro kinase assay are given below:
This protocol is based on Technical Bulletin, ADP-Glo™ Kinase Assay (Promega) and is adapted to 96-well plate containing 30 μL reaction mixture:
30 μL of 5× diluted ADP-Glo™ Reagent is added to each well of 96-well plate containing 30 μL of reaction mixture. The plate is incubated for 90 minutes on a shaker at rt. 60 μL of 5× diluted Kinase Detection Solution is added to each well of 96-well plate containing 60 μL of the solution (ratio of kinase reaction volume to ADP-Glo™ Reagent volume to Kinase Detection Solution volume is maintained at 1:1:2). Plate is incubated for 40 minutes on a shaker at rt, protected from light. Luminescence is measured in the plate reader Synergy 2 (BioTek).
Luminescent readouts for compounds tested in 10 concentrations (routinely from 100 μM to […], […] serial dilutions) in duplicates, as well as for positive control, are first normalized to no-substrate negative control by its subtraction. In the next step, % of normalized positive control is calculated for each data point and plotted against test compound concentration:
% of control—percent of positive control normalized to no-substrate negative control Lumcpd—luminescence of test compound Lumneg—luminescence of no-substrate negative control Lumpos—luminescence of positive control
IC50 parameter is determined by the GraphPad Prism 5.0 software [log(inhibitor) vs. response—Variable slope (four parameters)].

[2] = Microsomal stability (intrinsic clearance), mouse liver microsomes; format: in vitro ADME; design: microsomal CLint: dose or concentration left out as unconfirmed; details: mouse, liver microsomes, pH 7.4, mouse liver microsomes
Source text: (§1) A microsomal stability assay is used to measure in vitro clearance (Clint). The assay involves measuring the rate of disappearance of a compound due to its intrinsic attitude to be metabolized (“intrinsic” meaning that the disappearance is not affected by other properties like permeability, binding etc. that play a role when quantifying in vivo clearance). The microsomal stability (intrinsic clearance, Clint) and thus metabolic stability is generally given as μl/min/mg protein. It can be visualized as the volume of solution that 1 mg of microsomes is able to clear of the compound in one minute.
(§2) A Tecan Genesis workstation (RSP 150/8) was used for to perform the microsomal incubations. Analysis was carried out using a Waters ACQUITY UPLC system coupled to an ABSciex API3000 mass spectrometer. Data analysis was performed using Assay Explorer (Symyx).
(§3) Mobile phases: A=0.1% formic acid in water; B=acetonitrile
(§4) Flow rate: 0.750 mL/min; Detection: ESI, MRM; Injection: 10 μL; Column temperature: 50° C.
(§5) Potassium phosphate buffer: 0.05 M potassium phosphate buffer pH 7.4 containing 1 mM MgCl2 NADPH (nicotinamide adenine dinucleotide phosphate): 22.5 mg NADPH-Na4 in 1.8 ml potassium phosphate buffer Acetonitrile: 50 Vol % acetonitrile (1 volume acetonitrile, 1 volume water) DMSO: 20 Vol % DMSO in water Stock solution of 20 mg/ml human or mouse liver microsomes (protein)/ml in phosphate buffer Stock solution of 10 mM compound in 100% DMSO

Kinetic solubility = format: physicochemical; details: phosphate buffer, pH 7.4, aqueous buffer, kinetic from dmso stock, phosphate buffer 20 mM pH 7.4, 2% DMSO, room temperature
Description: Kinetic solubility of compounds of the present invention were tested according the following procedure.
(a) Buffer Solution Phosphate Buffer 20 mM pH 7.4 is prepared using Sorensen Phosphate Buffer 0.2 M pH 7.4 (EMS) in a 1000 mL volumetric flask (b) 2% DMSO in Phosphate Buffer 20 mM pH 7.4 is prepared by using 1 mL Dimethylsulfoxide (Merck) and 49 ml Sorensen Phosphate Buffer 20 mM pH 7.4 (c) Acetonitrile/Methanole/Eluent A (1:1:2; v/v/v) is prepared by using 50 mL Acetonitrile (Merck), 50 mL Methanol (Merck) and 100 mL Eluent A (d) Eluent A is prepared by using 1 mL Formic Acid (Merck) and 999 mL Ultrapure water (e) Eluent B is prepared by using 1 mL Formic Acid (Merck) and 999 mL Acetonitrile (Merck) (f) Filtration plate: Millipore MultiScreen HTS HV (0.45 μm) 96 Well (Millipore)
98 μL buffer solution (a) is added into a well of a 96 well filtration plate (f). Then 2 μL of 10 mM test compound solution in DMSO (Remp tube) is added. The filtration plate is incubated at room temperature for 120 minutes while agitating at 250 rpm and centrifuged with the PP-Plate (g) as receiver plate below (2500 rpm, 3 min). The 50 μL of filtrate is taken from the receiver plate and mixed with 50 μL of 2% DMSO in buffer pH 7.4 solution (b) (dilution factor=2) in a HPLC Vial (i)+(j).
Standard is prepared by diluting 2 μL of the same 10 mM test compound solution (Remp tube) diluted with 198 μL Acetonitrile/Methanole/Eluent A (1:1:2; v/v/v) (c) to prepare a 100 μM standard solution in a HPLC Vial (i)+(j).
Column temperature: 37° C. Autosampler: room temperature (approx. 25° C.) Gradient programme: […]
Injection volume: 10 μL Wavelength: Suitable wavelength (maximum sensitivity) selected out of wavelength range of 190-400 nm using a DAD detector.
L [μg/mL]=(area sample*concentration standard*dilution factor sample)/(area standard*dilution factor standard)
S [mol/L]=[…] Calculation: […]

[3] = Microsomal stability (intrinsic clearance), human liver microsomes; format: in vitro ADME; design: microsomal CLint: dose or concentration left out as unconfirmed; details: human, liver microsomes, pH 7.4, human liver microsomes
Source text: as §1, §2, §3, §4, §5

T1 sequence (Q16875 whole entry): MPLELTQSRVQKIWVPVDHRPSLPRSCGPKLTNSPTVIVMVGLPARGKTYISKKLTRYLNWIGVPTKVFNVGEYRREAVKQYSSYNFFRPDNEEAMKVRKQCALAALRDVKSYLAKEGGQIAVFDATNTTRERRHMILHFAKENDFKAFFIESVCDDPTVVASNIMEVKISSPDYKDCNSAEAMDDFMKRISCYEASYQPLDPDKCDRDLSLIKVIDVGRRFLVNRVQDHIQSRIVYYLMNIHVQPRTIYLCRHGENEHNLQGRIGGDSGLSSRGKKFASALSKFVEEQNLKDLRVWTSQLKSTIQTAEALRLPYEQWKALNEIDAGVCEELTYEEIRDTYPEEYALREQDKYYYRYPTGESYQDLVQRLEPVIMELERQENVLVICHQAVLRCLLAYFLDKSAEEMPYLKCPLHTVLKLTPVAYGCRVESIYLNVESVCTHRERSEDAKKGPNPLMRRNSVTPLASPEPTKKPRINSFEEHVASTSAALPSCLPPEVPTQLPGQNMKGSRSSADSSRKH

| Structure (SMILES) | IC50 [1] | microsomal CLint [2] | solubility kinetic at 120 min (Kinetic solubility) | microsomal CLint [3] |
| --- | --- | --- | --- | --- |
| COc1ccc([C@@H](Nc2cc(-c3ccc4ccn(C)c4c3)c3nccnc3c2)c2cnnn2C)cn1 [Comparative Example 3, N—[(R)-(6-methoxypyridin-3-yl)(1-methyl-1H-1,2,3-triazol-5-yl)methyl]-8-(1-methyl-1H-indol-6-yl)quinoxalin-6-amine, reference compound] | 530 nM | 287 µL/min/mg | 22 µM (≈ 10.5 µg/mL) | 267 µL/min/mg |
| Cn1ccc2ccc(-c3cc(NC(c4cccnc4)c4ccc(=O)[nH]n4)cc4nccnc34)cc21 (centres unmarked) [Example 1, 6-{[8-(1-Methyl-1H-indol-6-yl)-quinoxalin-6-ylamino]-pyridin-3-yl-methyl}-2H-pyridazin-3-one] | 32 nM | 122 µL/min/mg | 69 µM (≈ 31.7 µg/mL) | 78 µL/min/mg |
